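Where inhibition never reached the appropriate level, the endpoint shown equals the highest concentration tested. Otherwise, values were interpolated linearly from a five-concentration, 48-hour dose response in 96-well plates. GI50: concentration for 50% inhibition of growth. Definition used: TGI = concentration required for complete inhibition of growth.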

Among the test systems are 786-0 renal; HCT-116 colon; HCT-15 colon; IGROV1 ovarian; OVCAR-3 ovarian; SK-OV-3 ovarian; SN12C renal; SNB-75 CNS; U251 CNS; UACC-62 melanoma.
Holding throughout (assay): NCI-60 cell line screen, 48 h

In the case of `O=C(Nc1cc(-c2ccccc2)[nH]n1)c1ccc(Cl)cc1`, the GI50 was 72.4 µM in the assay with 786-0 renal; 9.22 µM in the assay with HCT-116 colon; 4.14 µM in the assay with HCT-15 colon; 3.04 µM in the assay with IGROV1 ovarian; > 100 µM in the assay with OVCAR-3 ovarian; 3.67 µM in the assay on SK-OV-3 ovarian. Moreover, the GI50 was > 100 µM with SN12C renal, 17.7 µM with SNB-75 CNS, 9.42 µM in the assay with U251 CNS and > 100 µM with UACC-62 melanoma. Moreover, the TGI with 786-0 renal, in the assay on HCT-116 colon, in the assay with HCT-15 colon, in the assay on IGROV1 ovarian, with OVCAR-3 ovarian and in the assay on SK-OV-3 ovarian was > 100 µM each time. Moreover, the TGI in the assay on SN12C renal is > 100 µM; in the assay on SNB-75 CNS it was 90.3 µM; with U251 CNS, > 100 µM; in the assay with UACC-62 melanoma, > 100 µM.
On to `CC1CCCC(C(=O)/C(=C/c2cccc(Cl)c2)C(=O)C(=O)O)C1` (stereo not given), for which the TGI was 33 µM with 786-0 renal; 26.9 µM with HCT-116 colon; 28.2 µM in the assay on HCT-15 colon; 83.5 µM in the assay with IGROV1 ovarian; 55.4 µM in the assay with OVCAR-3 ovarian; > 100 µM in the assay on SK-OV-3 ovarian. The TGI in the assay on SN12C renal is > 100 µM; with SNB-75 CNS, > 100 µM; in the assay with U251 CNS, 32.5 µM; in the assay with UACC-62 melanoma it was > 100 µM.
As for `COc1ccc(C2C(C#N)=C(N)OC3=C2CCCc2ccc(F)cc23)cc1OC` (stereo not given), the GI50 is 14.7 µM in the assay on 786-0 renal; 11 µM in the assay with HCT-116 colon; 17.8 µM with HCT-15 colon; 18.3 µM with IGROV1 ovarian; 19.3 µM in the assay with OVCAR-3 ovarian; 25.4 µM in the assay on SK-OV-3 ovarian. In addition, the GI50 with SN12C renal is 19.7 µM; in the assay on SNB-75 CNS, 34.7 µM; in the assay on U251 CNS, 17 µM; with UACC-62 melanoma it was 21.6 µM. Also, the TGI with 786-0 renal came out at 29.8 µM; in the assay with HCT-116 colon it was 39.1 µM; in the assay on HCT-15 colon it was 38 µM; with IGROV1 ovarian it was 46.3 µM; with OVCAR-3 ovarian it was 46.2 µM; in the assay with SK-OV-3 ovarian, 57.7 µM. Moreover, the TGI in the assay on SN12C renal was 39.5 µM; in the assay on SNB-75 CNS, > 84.6 µM; in the assay with U251 CNS it was 35.9 µM; with UACC-62 melanoma it was 47 µM.
Regarding `COc1ccc(C(=O)C(C(=O)CCC(=O)Nc2cccc(C(F)(F)F)c2)c2ccccc2)cc1` (stereo not given), the TGI in the assay on 786-0 renal, in the assay on HCT-116 colon, with HCT-15 colon, in the assay with IGROV1 ovarian, in the assay on OVCAR-3 ovarian and in the assay on SK-OV-3 ovarian was > 100 µM throughout. Besides, the TGI in the assay on SN12C renal, in the assay with SNB-75 CNS, in the assay on U251 CNS and with UACC-62 melanoma was > 100 µM throughout.
As to `CNc1nc(NC2CCCC2)nc(Sc2ccc(OC)cc2)n1`, the GI50 in the assay on 786-0 renal, in the assay on HCT-116 colon, with HCT-15 colon, with IGROV1 ovarian, in the assay with OVCAR-3 ovarian and in the assay on SK-OV-3 ovarian was > 10 µM in each case. Moreover, the GI50 in the assay on SN12C renal, with SNB-75 CNS, with U251 CNS and in the assay with UACC-62 melanoma was > 10 µM in each case. The TGI in the assay on 786-0 renal, in the assay on HCT-116 colon, with HCT-15 colon, with IGROV1 ovarian, in the assay on OVCAR-3 ovarian and with SK-OV-3 ovarian was > 10 µM in each case. In addition, the TGI with SN12C renal, in the assay with SNB-75 CNS, in the assay with U251 CNS and in the assay on UACC-62 melanoma was > 10 µM each time.
With `CCCSc1cc(Cl)nc(N)n1`, the GI50 in the assay with 786-0 renal, with HCT-116 colon, in the assay with HCT-15 colon, with IGROV1 ovarian, with OVCAR-3 ovarian and in the assay on SK-OV-3 ovarian was > 100 µM each time. Also, the GI50 in the assay on SN12C renal was > 100 µM; in the assay on SNB-75 CNS, 90.1 µM; with U251 CNS, > 100 µM; in the assay with UACC-62 melanoma, > 100 µM. Further, the TGI in the assay on 786-0 renal, with HCT-116 colon, in the assay with HCT-15 colon, in the assay on IGROV1 ovarian, with OVCAR-3 ovarian and in the assay with SK-OV-3 ovarian was > 100 µM in each case. Further, the TGI in the assay with SN12C renal, with SNB-75 CNS, in the assay on U251 CNS and in the assay with UACC-62 melanoma was > 100 µM each time.
Regarding `Oc1c2c(c(O)c3ccccc13)=N[C@@H](c1ccccc1)[C@H](c1ccccc1)N=2`, the TGI with 786-0 renal, with HCT-116 colon, with HCT-15 colon, with IGROV1 ovarian, in the assay with OVCAR-3 ovarian and in the assay with SK-OV-3 ovarian was > 100 µM each time. The TGI in the assay on SN12C renal, in the assay with SNB-75 CNS, with U251 CNS and in the assay with UACC-62 melanoma was > 100 µM in each case.
Regarding `CN1CCN(C)C1c1cccc(C2N(C)CCN2C)c1`, the TGI in the assay with 786-0 renal, in the assay on HCT-116 colon, in the assay with HCT-15 colon, in the assay on IGROV1 ovarian, in the assay with OVCAR-3 ovarian and in the assay with SK-OV-3 ovarian was > 100 µM throughout. Also, the TGI in the assay on SN12C renal, in the assay on SNB-75 CNS, in the assay on U251 CNS and with UACC-62 melanoma was > 100 µM in each case.
Consider `CC(=O)n1c(-c2ccc(Cl)cc2)nc2c(c1=O)C(c1ccc(Cl)cc1)c1sc3c(Cl)cccc3c1O2` (stereo not given), for which the GI50 with 786-0 renal is 0.48 µM; with HCT-116 colon, 0.301 µM; in the assay on HCT-15 colon, 0.418 µM; with IGROV1 ovarian, 0.847 µM; in the assay on OVCAR-3 ovarian, 0.402 µM; with SK-OV-3 ovarian, 0.352 µM. The GI50 was 0.715 µM in the assay on SN12C renal, 0.454 µM in the assay with SNB-75 CNS, 0.446 µM in the assay on U251 CNS and 0.351 µM in the assay with UACC-62 melanoma. Besides, the TGI in the assay with 786-0 renal came to 1.7 µM; with HCT-116 colon, 1.44 µM; with HCT-15 colon, 1.74 µM; with IGROV1 ovarian, 3.11 µM; with OVCAR-3 ovarian it was 1.5 µM; in the assay with SK-OV-3 ovarian it was 1.95 µM. Further, the TGI stood at 2.56 µM in the assay on SN12C renal, 5.88 µM in the assay on SNB-75 CNS, 1.67 µM in the assay on U251 CNS and 1.6 µM with UACC-62 melanoma.

Values taken from PubChem BioAssay (NCI).
